The values that follow come from ChEMBL document CHEMBL1137051, “More potent linear peptide inhibitors of mammalian ribonucleotide reductase” (Bioorg Med Chem Lett, 2004).

Where a SMILES comes first, the peptide text is derived from it. [ ]: non-standard residue; d: D form. The star is where a group is joined. Fmoc = O=C(OCC1c2ccccc2-c2ccccc21)*; NMeF = CN[C@@H](Cc1ccccc1)C(=O)O; NMePhg = CN[C@H](C(=O)O)c1ccccc1; Cha = N[C@@H](CC1CCCCC1)C(=O)O

The target of one assay is T1, Ribonucleoside-diphosphate reductase RR1 (Homo sapiens, UniProt P23921+Q7LG56+P31350).
T1 sequence (P23921 whole entry): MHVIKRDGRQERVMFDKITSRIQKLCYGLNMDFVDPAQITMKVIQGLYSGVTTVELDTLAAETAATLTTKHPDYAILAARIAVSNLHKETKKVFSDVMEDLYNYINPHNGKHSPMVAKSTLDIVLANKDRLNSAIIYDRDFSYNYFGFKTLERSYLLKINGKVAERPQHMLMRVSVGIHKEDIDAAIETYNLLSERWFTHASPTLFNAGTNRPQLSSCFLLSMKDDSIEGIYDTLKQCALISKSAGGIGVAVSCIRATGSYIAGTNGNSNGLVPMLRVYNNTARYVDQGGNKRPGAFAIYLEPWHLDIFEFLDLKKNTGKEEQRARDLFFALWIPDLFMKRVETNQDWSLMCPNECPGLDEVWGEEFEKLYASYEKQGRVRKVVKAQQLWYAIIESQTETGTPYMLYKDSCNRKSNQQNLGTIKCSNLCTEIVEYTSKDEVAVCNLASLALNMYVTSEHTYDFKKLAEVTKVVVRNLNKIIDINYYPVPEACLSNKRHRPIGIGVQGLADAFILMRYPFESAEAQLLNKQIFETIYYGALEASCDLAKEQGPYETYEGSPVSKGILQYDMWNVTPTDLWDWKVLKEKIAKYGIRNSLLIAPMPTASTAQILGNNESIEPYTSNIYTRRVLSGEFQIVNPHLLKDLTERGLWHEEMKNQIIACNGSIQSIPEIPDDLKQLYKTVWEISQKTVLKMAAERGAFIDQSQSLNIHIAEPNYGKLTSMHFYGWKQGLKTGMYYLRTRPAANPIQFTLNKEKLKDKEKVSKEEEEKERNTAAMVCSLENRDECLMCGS
T1 sequence (Q7LG56 whole entry): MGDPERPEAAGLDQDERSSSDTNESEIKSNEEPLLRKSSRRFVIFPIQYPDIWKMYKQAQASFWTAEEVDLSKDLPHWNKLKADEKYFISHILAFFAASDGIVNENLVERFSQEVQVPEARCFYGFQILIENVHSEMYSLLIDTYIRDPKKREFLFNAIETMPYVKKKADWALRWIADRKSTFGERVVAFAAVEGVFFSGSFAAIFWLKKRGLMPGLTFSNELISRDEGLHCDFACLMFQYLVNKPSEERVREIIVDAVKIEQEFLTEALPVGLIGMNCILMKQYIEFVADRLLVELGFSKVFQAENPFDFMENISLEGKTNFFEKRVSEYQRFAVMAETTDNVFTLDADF
T1 sequence (P31350 whole entry): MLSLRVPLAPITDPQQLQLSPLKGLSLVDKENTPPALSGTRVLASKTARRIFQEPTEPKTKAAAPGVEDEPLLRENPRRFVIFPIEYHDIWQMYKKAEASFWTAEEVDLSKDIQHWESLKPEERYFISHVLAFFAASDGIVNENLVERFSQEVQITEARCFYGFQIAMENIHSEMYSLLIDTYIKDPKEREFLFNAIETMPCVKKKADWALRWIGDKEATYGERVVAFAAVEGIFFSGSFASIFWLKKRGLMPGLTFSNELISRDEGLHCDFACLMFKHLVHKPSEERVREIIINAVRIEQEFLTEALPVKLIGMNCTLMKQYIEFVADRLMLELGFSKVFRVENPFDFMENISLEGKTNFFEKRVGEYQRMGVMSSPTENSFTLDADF
As to the kind of experiment: (§1) Inhibition of mammalian ribonucleotide reductase in a standard dTTP-dependent GDP reductase assay. It counts as protein-complex assay.
The compound `CC(C)C[C@H](NC(=O)[C@H](Cc1ccccc1)N(C)C(=O)OCC1c2ccccc2-c2ccccc21)C(=O)N[C@@H](CC(=O)O)C(=O)N[C@@H](CC1CCCCC1)C(=O)N[C@@H](CC(=O)O)C(=O)N[C@@H](Cc1ccccc1)C(=O)O` (Fmoc-[NMeF]LD[Cha]DF-OH) displayed an IC50 of 2.4 µM. Compound `CC(C)C[C@H](NC(=O)[C@H](Cc1ccccc1)N(C)C(=O)OCC1c2ccccc2-c2ccccc21)C(=O)N[C@@H](CCC(=O)O)C(=O)N[C@@H](CC1CCCCC1)C(=O)N[C@@H](CC(=O)O)C(=O)N[C@@H](Cc1ccccc1)C(=O)O` (Fmoc-[NMeF]LE[Cha]DF-OH) had an IC50 of 2.4 µM.

A further assay concerns the target T2, Ribonucleoside-diphosphate reductase RR1 (Homo sapiens, UniProt P23921+P31350+Q7LG56).
T2 sequence (P23921 whole entry): T1 sequence (P23921 whole entry)
T2 sequence (Q7LG56 whole entry): T1 sequence (Q7LG56 whole entry)
T2 sequence (P31350 whole entry): T1 sequence (P31350 whole entry)
Described as §1. It counts as protein-complex assay.
Compound `O=C(O)C[C@H](NC(=O)[C@H](Cc1ccccc1)NC(=O)[C@H](Cc1c[nH]c2ccccc12)NC(=O)OCC1c2ccccc2-c2ccccc21)C(=O)N[C@@H](Cc1ccccc1)C(=O)O` (Fmoc-WFDF-OH) returned an IC50 of 22 µM. The same measure, in the same setting: the value for `CC(C)[C@H](NC(=O)[C@H](Cc1c[nH]c2ccccc12)NC(=O)OCC1c2ccccc2-c2ccccc21)C(=O)N[C@@H](Cc1ccccc1)C(=O)N[C@@H](Cc1ccccc1)C(=O)O` (Fmoc-WVFF-OH) was 20 µM; that for `CC(C)C[C@H](NC(=O)[C@H](c1ccccc1)N(C)C(=O)OCC1c2ccccc2-c2ccccc21)C(=O)N[C@@H](CC(=O)O)C(=O)N[C@@H](CC1CCCCC1)C(=O)N[C@@H](CC(=O)O)C(=O)N[C@@H](Cc1ccccc1)C(=O)O` (Fmoc-[NMePhg]LD[Cha]DF-OH) was 1.9 µM.

In the case of Ac-FTLDADF-OH, the half-maximal inhibitory concentration (IC50) is 13.3 µM.
